One may read the Ki as the dissociation constant of the complex between target and ligand, obtained from inhibition or displacement. A high value points to weaker binding.

Assay [1] concerns the target T1, α5β3γ2 GABAA receptors (Homo sapiens, UniProt P18507+P31644).
T1 construct: membranes
Description: Binding activity of test compounds on GABAAR ([3H]Ro15-1788 inhibition, Ltk cell membranes). How it is done: The binding was performed on Ltk cells stably expressing GABAA receptors: α1β1γ2, α2β3γ2, α3β3γ2 and α5β3γ2 (provided by Merck Co., NJ, USA). Cells were seeded in 100 mm culture plates in DMEM/F12 medium containing 10% serum and antibiotics in 5% C02 and allowed to grow for 1-2 days. GABAAR expression was then induced by dexamethasone as follows: 0.5 μM for 1 day for α5 containing and 2 μM for 3 days for α1, α2 and α3 containing GABAARs. After induction, cells were collected by scraping into Dulbecco's Phosphate buffered saline (DPBS, pH 7.4, Invitrogen, Carlsbad, Calif., USA) and centrifuged at 150×g for 10 min. The pellet was washed twice by re-suspension and centrifugation. The cell pellets from at least 5 different preps were combined, suspended in the binding assay buffer (50 mM KH2PO4; 1 mM EDTA; 0.2 M KCl, pH 7.4) and membranes prepared by sonication (3-5 times, 30 sec) using Branson Sonifier 150 (G.Heinmann, Germany). Protein content was determined using BCA assay (Bio-Rad Labs, Reinach, Switzerland) with Bovine Serum Albumin (Sigma Aldrich, St. Louis, Mo., USA) as the standard. Aliquots were prepared and stored at −20° C. for further use in binding assays.
Saturation binding curves were obtained by incubating membranes with increasing concentrations (0.01-8 nM) of [^3H]Ro15-1788 (Flumazepil, 75-85 Ci/mmol, PerkinElmer, MA, USA), with nonspecific binding measured in the presence of 10 μM diazepam.
All binding assays were performed for 1 h at 4° C. in assay buffer. The total assay volume was 0.5 ml containing 0.2 mg/ml protein for α5 and 0.4 mg/ml for α1, α2, and α3 containing GABAAR membranes. Incubations were terminated by filtration through GF/B filters using a 24-Cell Harvestor (Brandel, Gaithersburg, Md., USA) followed by 3 washes with ice-cold assay buffer. Filters were transferred to scintillation vials, 5 ml scintillation liquid added, vortex-mixed and kept in dark. Next day, radioactivity was obtained using a scintillation counter (Beckman Coulter, Brea, Calif., USA). All assays were performed in triplicate.
Saturation and inhibition curves were obtained using GraphPad Prism software (GraphPad Software, Inc., CA, USA).

The target of assay [2] is T2, GABAA receptors (α5β2γ2) (Homo sapiens, UniProt P18507+P31644).
T2 construct: expressed in transfected cells; host or cells: oocytes injected with a mix of alpha, beta and gamma cDNA (1:1:10 by weight)
T2 sequence (P31644 32-462): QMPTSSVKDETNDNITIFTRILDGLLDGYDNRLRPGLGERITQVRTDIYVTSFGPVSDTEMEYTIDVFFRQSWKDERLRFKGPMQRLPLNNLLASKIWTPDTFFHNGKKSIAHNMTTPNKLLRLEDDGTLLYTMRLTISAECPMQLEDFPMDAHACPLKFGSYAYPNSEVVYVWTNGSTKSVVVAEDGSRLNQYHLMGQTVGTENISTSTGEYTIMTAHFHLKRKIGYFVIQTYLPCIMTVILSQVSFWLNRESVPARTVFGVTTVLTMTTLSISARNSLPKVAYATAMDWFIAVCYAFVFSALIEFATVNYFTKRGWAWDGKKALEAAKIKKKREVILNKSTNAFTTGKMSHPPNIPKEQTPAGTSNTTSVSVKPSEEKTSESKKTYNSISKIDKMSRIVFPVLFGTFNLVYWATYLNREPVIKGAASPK
T2 sequence (P47870 25-512 partner limits assumed): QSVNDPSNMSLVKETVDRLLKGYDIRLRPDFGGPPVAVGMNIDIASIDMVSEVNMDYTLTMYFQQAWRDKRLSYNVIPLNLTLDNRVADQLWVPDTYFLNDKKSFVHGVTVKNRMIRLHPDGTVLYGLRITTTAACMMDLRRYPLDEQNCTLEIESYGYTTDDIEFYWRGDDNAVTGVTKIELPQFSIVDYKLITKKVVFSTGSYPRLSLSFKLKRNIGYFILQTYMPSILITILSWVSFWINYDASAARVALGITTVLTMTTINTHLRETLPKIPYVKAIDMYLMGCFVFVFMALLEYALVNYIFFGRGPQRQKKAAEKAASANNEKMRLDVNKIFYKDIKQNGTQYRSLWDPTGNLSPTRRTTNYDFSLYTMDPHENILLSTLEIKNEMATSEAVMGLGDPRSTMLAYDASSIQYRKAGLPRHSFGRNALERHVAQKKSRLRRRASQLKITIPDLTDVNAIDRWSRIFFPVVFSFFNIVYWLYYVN
T2 sequence (P18507 40-475): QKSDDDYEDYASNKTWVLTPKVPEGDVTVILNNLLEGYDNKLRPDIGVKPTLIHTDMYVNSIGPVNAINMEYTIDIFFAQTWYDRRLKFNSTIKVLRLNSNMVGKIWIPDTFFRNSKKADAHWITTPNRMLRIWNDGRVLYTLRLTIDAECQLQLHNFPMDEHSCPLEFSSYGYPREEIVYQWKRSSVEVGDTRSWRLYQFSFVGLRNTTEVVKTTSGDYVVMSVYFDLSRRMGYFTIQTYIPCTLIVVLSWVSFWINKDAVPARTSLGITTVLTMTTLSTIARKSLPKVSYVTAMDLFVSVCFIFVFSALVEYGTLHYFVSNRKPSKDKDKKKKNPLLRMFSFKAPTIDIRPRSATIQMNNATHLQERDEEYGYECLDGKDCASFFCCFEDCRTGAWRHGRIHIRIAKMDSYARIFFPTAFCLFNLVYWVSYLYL
Description: Positive allosteric modulator activity, potentiation of EC20 GABA current in oocytes. Type of assay: cell-based. As to conditions: read-out: GABA α5 functional potentiation. How it is done:
On day 1, 1 ng/32 nL of GABAA […] cDNA was injected into one oocyte. Test starts on day 2. The cDNA injected to the oocytes was a mix of alpha, beta and gamma, their ratio is 1:1:10 (by weight) and the total weight of the mixed 3 subunits to be injected in one oocyte was 1 ng in 32 nl volume. The injected oocytes can also be tested on day 3. In such case, the cDNA amount injected to the oocytes should be reduced by 20%.
1). 8 oocytes were placed in 8 chambers of OpusXpress and superfused with Modified Barth's Saline (MBS) at 3 mL/min. Glass electrodes back-filled with 3M KCl (0.5-3 megaohms) were used.
3). […] Oocytes were washed with MBS for 5-10 min.
2). […] Divide Itest by IGABA to obtain potentiation (%).
3). Discard all tested oocytes, new oocytes were used and the above steps 1) and 2) were repeated to test second concentration of the same compound. Each oocyte was used for only one concentration test for a single test compound. The steps were repeated for other test compounds.

Structures are written as SMILES. A value given as a limit tells only on which side of the number the result lay.

T1 sequence (P31644 32-462): as the sequence (P31644 32-462) above
T1 sequence (P28472 26-473 partner): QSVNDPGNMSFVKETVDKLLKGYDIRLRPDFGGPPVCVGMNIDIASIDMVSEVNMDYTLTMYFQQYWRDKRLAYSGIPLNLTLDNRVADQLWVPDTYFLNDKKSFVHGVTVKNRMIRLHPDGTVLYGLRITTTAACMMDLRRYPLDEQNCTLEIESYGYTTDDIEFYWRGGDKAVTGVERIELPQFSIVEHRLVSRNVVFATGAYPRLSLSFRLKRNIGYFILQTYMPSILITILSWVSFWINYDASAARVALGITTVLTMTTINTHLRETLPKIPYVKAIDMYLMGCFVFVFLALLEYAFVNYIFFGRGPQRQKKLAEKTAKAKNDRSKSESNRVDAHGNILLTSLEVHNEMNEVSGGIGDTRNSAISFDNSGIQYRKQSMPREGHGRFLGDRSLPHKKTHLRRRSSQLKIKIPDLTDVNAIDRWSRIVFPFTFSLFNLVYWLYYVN
T1 sequence (P18507 40-475): as the sequence (P18507 40-475) above

Consider `CCOC(=O)c1ncn2c1Cc1c(C)nnn1-c1cc(OC)ccc1-2` [Compound 1], for which the Ki in assay [1] was less than 0.099 µM. The activation at 0.1 µM in assay [2] lay within 20 to 49%. Taken in the same sequence, the figures for `CCOC(=O)c1ncn2c1Cc1c(C)nnn1-c1cc(F)ccc1-2` [Compound 2] were less than 0.099 µM and 20 to 49%. For `CCOC(=O)c1ncn2c1Cc1c(C)nnn1-c1ccccc1-2` [Compound 3], the inhibitory constant (Ki) in assay [1] was less than 0.099 µM.

Take `CCOC(=O)c1ncn2c1Cc1c(Cc3ccccc3)nnn1-c1cc(OC)ccc1-2` [Compound 4]: the inhibitory constant (Ki) in assay [1] was less than 0.099 µM. The same measure, in the same setting: for `CCOC(=O)c1ncn2c1Cc1c(Cc3ccccc3)nnn1-c1ccccc1-2` [Compound 5] the value was less than 0.099 µM; for `CCOC(=O)c1ncn2c1Cc1c(Cc3ccccc3)nnn1-c1cc(F)ccc1-2` [Compound 6], less than 0.099 µM; for `CCOC(=O)c1ncn2c1Cc1c(C)cnn1-c1cc(OC)ccc1-2` [Compound 7], less than 0.099 µM. On the same count and under the same terms, for `CCOC(=O)c1ncn2c1Cc1c(Cc3ccccc3)cnn1-c1cc(OC)ccc1-2` [Compound 8] the value was less than 0.099 µM. Regarding `CCOC(=O)c1ncn2c1Cc1c(COc3ccccc3)nnn1-c1cc(OC)ccc1-2` [Compound 9], in assay [1], the inhibitory constant (Ki) is less than 0.099 µM. Moreover, in assay [2], the activation at 0.1 µM fell in the range of 20 to 49%. As for `CCOC(=O)c1ncn2c1Cc1c(COc3ccc(F)cc3)nnn1-c1cc(OC)ccc1-2` [Compound 10], the inhibition constant (Ki) in assay [1] was less than 0.099 µM. The compound `CCOC(=O)c1ncn2c1Cc1c(COc3cccc(OC)c3)nnn1-c1cc(OC)ccc1-2` [Compound 11] had a Ki in assay [1] of less than 0.099 µM. Moreover, the activation at 0.1 µM in assay [2] was in the range of 20 to 49%. Take `CCOC(=O)c1ncn2c1Cc1c(COc3ccc(C)cc3C)nnn1-c1cc(OC)ccc1-2` [Compound 12]: the inhibition constant Ki in assay [1] was less than 0.099 µM. On the same count and under the same terms, then `CCOC(=O)c1ncn2c1Cc1c(Cc3ccc(C)cc3)nnn1-c1cc(F)ccc1-2` [Compound 44], with less than 0.099 µM. In assay [1], `CCOC(=O)c1ncn2c1Cc1c(Cc3ccc(Cl)cc3)nnn1-c1cc(F)ccc1-2` [Compound 45] yielded an inhibition constant (Ki) of less than 0.099 µM. In addition, the activation at 0.1 µM in assay [2] was 20 to 49%. As to `CCOC(=O)c1ncn2c1Cc1c(Cc3ccc(Cl)cc3)nnn1-c1ccccc1-2` [Compound 47], the Ki in assay [1] is less than 0.099 µM.

`CCOC(=O)c1ncn2c1Cc1c(CN3CCCC3)nnn1-c1cc(OC)ccc1-2` [Compound 48] had an inhibition constant Ki in assay [1] of less than 0.099 µM. Moreover, in assay [2], the activation at 0.1 µM was 20 to 49%. The compound `CCOC(=O)c1ncn2c1Cc1c(CN3CCOCC3)nnn1-c1cc(OC)ccc1-2` [Compound 49] showed a Ki in assay [1] of less than 0.099 µM. As to `CCOC(=O)c1ncn2c1Cc1c(CN(C)Cc3ccccc3)nnn1-c1cc(OC)ccc1-2` [Compound 51], in assay [1], the Ki is less than 0.099 µM. Same read-out and setting: then `CCOC(=O)c1ncn2c1Cc1c(Cc3cccc(Cl)c3)nnn1-c1cc(OC)ccc1-2` [Compound 52], with less than 0.099 µM. On the same count and under the same terms, for `CCOC(=O)c1ncn2c1Cc1c(Cc3cccc(C#N)c3)nnn1-c1cc(OC)ccc1-2` [Compound 53] the value was less than 0.099 µM.

`CCOC(=O)c1ncn2c1Cn1c(COc3ccccc3)nnc1-c1cc(OC)ccc1-2` [Compound 55] displayed a Ki in assay [1] of less than 0.099 µM. Besides, the activation at 0.1 µM in assay [2] was in the range of 20 to 49%.

In assay [1], `CCOC(=O)c1ncn2c1Cn1c(COc3ccc(F)cc3)nnc1-c1cc(OC)ccc1-2` [Compound 56] registered a Ki of less than 0.099 µM.

As to `CCOC(=O)c1ncn2c1Cn1c(COC)nnc1-c1cc(OC)ccc1-2` [Compound 103], in assay [1], the Ki was less than 0.099 µM.

As to `CCOC(=O)c1ncn2c1Cn1c(Oc3ccccc3)nnc1-c1cc(OC)ccc1-2` [Compound 104], in assay [1], the inhibition constant Ki is less than 0.099 µM.

For `CCOC(=O)c1ncn2c1Cn1c(Oc3cccc(OC)c3)nnc1-c1cc(OC)ccc1-2` [Compound 105], the Ki in assay [1] was less than 0.099 µM. The same measure, in the same setting: for `CCOC(=O)c1ncn2c1Cn1c(Br)nnc1-c1cc(OC)ccc1-2` [Compound 106] the value was less than 0.099 µM. Still for that read-out and setting: then `CCOC(=O)c1ncn2c1Cc1c(COc3ccccc3)nnn1-c1cc(F)ccc1-2` [Compound 107], with less than 0.099 µM. Still for that read-out and setting: then `CCOC(=O)c1ncn2c1Cc1c(Cc3ccccc3Cl)nnn1-c1cc(OC)ccc1-2` [Compound 108], with less than 0.099 µM. The compound `Cc1noc(-c2ncn3c2Cc2c(Cc4ccccc4)nnn2-c2cc(F)ccc2-3)n1` [Compound 109] had a Ki in assay [1] of less than 0.099 µM. In addition, the activation at 0.1 µM in assay [2] was in the range of 20 to 49%.

`Cc1noc(-c2ncn3c2Cc2c(C)nnn2-c2cc(F)ccc2-3)n1` [Compound 110]: the activation at 0.1 µM in assay [2] was 20 to 49%. In assay [1], `CCOC(=O)c1ncn2c1Cc1c(Cc3cccnc3)nnn1-c1cc(C)ccc1-2` [Compound 111] displayed an inhibition constant (Ki) of less than 0.099 µM. In addition, in assay [2], the activation at 0.1 µM was in the range of 20 to 49%.

With `Cc1nnn2c1Cc1c(C(=O)OC(C)C)ncn1-c1ccc(F)cc1-2` [Compound 112], the Ki in assay [1] is less than 0.099 µM. Turning to `Cc1nnn2c1Cc1c(C(=O)OCC(C)(C)C)ncn1-c1ccc(F)cc1-2` [Compound 113], the activation at 0.1 µM in assay [2] is greater than 50%. With `Cc1nnn2c1Cc1c(C(=O)OCC(F)(F)F)ncn1-c1ccc(F)cc1-2` [Compound 114], the inhibitory constant (Ki) in assay [1] is less than 0.099 µM. In addition, the activation at 0.1 µM in assay [2] is greater than 50%. Taken in the same sequence, the figures for `COc1ccc2c(c1)-c1nnc(COc3ccccc3)n1Cc1c(-c3nc(C)no3)ncn1-2` [Compound 118] were less than 0.099 µM and 20 to 49%.

For `COc1ccc2c(c1)-c1nnc(COc3ccccc3)n1Cc1c(C(=O)OC(C)C)ncn1-2` [Compound 120], the inhibition constant Ki in assay [1] was less than 0.099 µM. Besides, the activation at 0.1 µM in assay [2] was 20 to 49%.

`COc1ccc2c(c1)-c1nnc(COc3ccccc3)n1Cc1c(C#N)ncn1-2` [Compound 122]: in assay [1], the Ki is less than 0.099 µM.

Turning to `Cc1noc(-c2ncn3c2Cc2c(C)nnn2-c2ccccc2-3)n1` [Compound 126], in assay [1], the Ki was less than 0.099 µM. The activation at 0.1 µM in assay [2] lay in the range of 20 to 49%. For `Cc1nc(-c2ncn3c2Cc2c(C)nnn2-c2ccccc2-3)no1` [Compound 127], the Ki in assay [1] was less than 0.099 µM. For the same compound, the activation at 0.1 µM in assay [2] fell in the range of 20 to 49%. Compound `COCc1nnc2n1Cc1c(-c3nc(C)no3)ncn1-c1ccc(OC)cc1-2` [Compound 128] displayed a Ki in assay [1] of less than 0.099 µM. For the same compound, the activation at 0.1 µM in assay [2] was in the range of 20 to 49%. Compound `COCc1nnc2n1Cc1c(Br)ncn1-c1ccc(OC)cc1-2` [Compound 129] yielded a Ki in assay [1] of less than 0.099 µM. The same measure, in the same setting: then `Cc1nnn2c1Cc1c(-c3noc(C(C)C)n3)ncn1-c1ccccc1-2` [Compound 133], with less than 0.099 µM; and `Cc1nnn2c1Cc1c(-c3noc(C(F)(F)F)n3)ncn1-c1ccc(F)cc1-2` [Compound 150], with less than 0.099 µM. As for `Cc1nnn2c1Cc1c(-c3ncon3)ncn1-c1ccc(F)cc1-2` [Compound 151], the inhibition constant Ki in assay [1] was less than 0.099 µM. Same read-out and setting: for `CC(C)OC(=O)c1ncn2c1Cn1c(COc3ccccc3)nnc1-c1cc(F)ccc1-2` [Compound 156] the value was less than 0.099 µM; for `N#Cc1ncn2c1Cn1c(COc3ccccc3)nnc1-c1cc(F)ccc1-2` [Compound 157], less than 0.099 µM. As for `Fc1ccc2c(c1)-c1nnc(COc3ccccc3)n1Cc1c(-c3noc(C(F)(F)F)n3)ncn1-2` [Compound 159], the Ki in assay [1] is less than 0.099 µM.

`C#Cc1ncn2c1Cc1c(C)nnn1-c1ccccc1-2` [Compound 161] gave a Ki in assay [1] of less than 0.099 µM. Still for that read-out and setting: then `COCc1nnc2n1Cc1c(-c3noc(C)n3)ncn1-c1ccc(OC)cc1-2` [Compound 164], with less than 0.099 µM; and `COc1ccc2c(c1)-c1nnc(COCc3ccccc3)n1Cc1c(-c3noc(C)n3)ncn1-2` [Compound 165], with less than 0.099 µM. In assay [1], `COc1ccc2c(c1)-c1nnc(COCc3ccccc3)n1Cc1c(C#N)ncn1-2` [Compound 166] gave an inhibition constant Ki of less than 0.099 µM. Same read-out and setting: then `COc1ccc2c(c1)-n1nnc(C)c1Cc1c(-c3nc(C)no3)ncn1-2` [Compound 167], with less than 0.099 µM; and `COc1ccc2c(c1)-n1nnc(COc3cccc(F)c3)c1Cc1c(-c3noc(C)n3)ncn1-2` [Compound 168], with less than 0.099 µM; and `COCc1nnc2n1Cc1c(-c3noc(C(C)C)n3)ncn1-c1ccc(OC)cc1-2` [Compound 169], with less than 0.099 µM.

(Values after US11142529B2 (priority 2013, dated 2021).)
